{"source": "patent US11826332B2", "about": "“Antimicrobial compositions and uses thereof” (Board of Regents, The University of Texas System, priority 2016, dated 2023)", "key": {"[1]": {"tested_on": "Escherichia coli (E. coli)", "assay": "Disinfection of colonized urinary catheter external surface, transient contact", "type": "cell-based", "settings": "in 1.5% CMC solution; transient contact exposure of a few minutes; three 1 cm catheter segments"}, "[2]": {"tested_on": "vancomycin resistant Enterococcus (VRE)", "assay": "Disinfection of colonized urinary catheter external surface, transient contact", "type": "cell-based", "settings": "in 1.5% CMC solution; transient contact exposure of a few minutes; three 1 cm catheter segments"}, "[3]": {"tested_on": "methicillin resistant Staphylococcus aureus (MRSA)", "assay": "Disinfection of colonized urinary catheter external surface, transient contact", "type": "cell-based", "settings": "in 1.5% CMC solution; transient contact exposure of a few minutes; three 1 cm catheter segments"}, "[4]": {"tested_on": "Candida albicans (C. albicans)", "assay": "Disinfection of colonized urinary catheter external surface, transient contact", "type": "cell-based", "settings": "in 1.5% CMC solution; transient contact exposure of a few minutes; three 1 cm catheter segments"}, "[5]": {"tested_on": "Candida albicans (CA) biofilm", "assay": "Biofilm eradication model on silicone discs, time to complete eradication", "type": "cell-based", "settings": "Table 2; disinfecting solutions pH 4.0-4.5; >120 = not completely eradicated within 120 minutes exposure"}, "[6]": {"tested_on": "Candida glabarata (CG) biofilm", "assay": "Biofilm eradication model on silicone discs, time to complete eradication", "type": "cell-based", "settings": "Table 2; disinfecting solutions pH 4.0-4.5; >120 = not completely eradicated within 120 minutes exposure"}, "[7]": {"tested_on": "multidrug-resistant Pseudomonas aeruginosa (PS) biofilm", "assay": "Biofilm eradication model on silicone discs, time to complete eradication", "type": "cell-based", "settings": "Table 2; disinfecting solutions pH 4.0-4.5; >120 = not completely eradicated within 120 minutes exposure"}, "[8]": {"tested_on": "methicillin-resistant Staphylococcus aureus (MRSA) biofilm", "assay": "Biofilm eradication model on silicone discs, time to complete eradication", "type": "cell-based", "settings": "Table 2; disinfecting solutions pH 4.0-4.5; >120 = not completely eradicated within 120 minutes exposure"}, "MRSA biofilm": {"tested_on": "MRSA biofilm", "assay": "Modified Kuhn's model, quantitative time-to-kill biofilm eradication", "type": "cell-based, Staphylococcus aureus", "settings": "60 minutes exposure", "procedure": "In vitro antimicrobial assessments of PG, CAP, and PG+CAP solutions were conducted using an established time-to-kill biofilm eradication model, the modified Kuhn's model (Kuhn et al., 2002). Briefly, 1 cm diameter silicone discs, were placed into a 24-well tissue culture plate and incubated with donor human plasma at 37° C. for 24 hours. The plasma was then removed, replaced with 1 mL of 5.5×10^5 CFU of bacterial (MRSA, Pseudomonas aeruginosa) or yeast (Candida albicans) inocula and incubated at 37 C for an additional 24 hrs. Inoculum was removed and the discs were washed shaking at 100 rpm for 30 minutes in 0.9% sterile saline in order to remove any planktonic organisms. After washing, discs were exposed to 1 mL various disinfectant solutions and incubated at 37° C. for 30 min or 60 min. Saline flush solution was used a negative control. […] Resulting solutions were quantitatively cultured by plating 100 μL onto Muller-Hinton (for bacteria) or Sabouraud dextrose (for yeast) agar. […]\nStatistical analyses: The Kruskal-Wallis test was used to determine whether there was a significant difference in the medians in any of the lock solutions tested. Pairwise comparisons were assessed using the Mann-Whitney U test to […] performance of PG+CAP and CAP lock solutions at specified time points. […]"}, "[9]": {"settings": "CRC Handbook of Chemistry and Physics; cited from earlier work"}}}
{"smiles": "OO", "note": "[0.3% H2O2, hydrogen peroxide]", "values": [{"measurement": "Median recoveries, E. coli", "setting": "[1]", "value": "2700 CFU/cm of catheter"}, {"measurement": "Median recoveries, VRE", "setting": "[2]", "value": ">50,000 CFU/cm of catheter"}, {"measurement": "Median recoveries, MRSA", "setting": "[3]", "value": "0 CFU/cm of catheter"}, {"measurement": "Median recoveries, C. albicans", "setting": "[4]", "value": ">50,000 CFU/cm of catheter"}]}
{"smiles": "O=[N+]([O-])OCC(CO[N+](=O)[O-])O[N+](=O)[O-]", "note": "[0.03% nitroglycerin (GTN), glyceryl trinitrate]", "values": [{"measurement": "time to complete biofilm eradication, CA", "setting": "[5]", "value": ">120", "unit": "min"}, {"measurement": "time to complete biofilm eradication, CG", "setting": "[6]", "value": ">120", "unit": "min"}, {"measurement": "time to complete biofilm eradication, PS", "setting": "[7]", "value": ">120", "unit": "min"}, {"measurement": "time to complete biofilm eradication, MRSA", "setting": "[8]", "value": ">120", "unit": "min"}]}
{"smiles": "CCCCCCCC(=O)O", "note": "[0.4% Caprylic Acid (CAP), caprylic acid (octanoic acid)]", "values": [{"measurement": "time to complete biofilm eradication, CA", "setting": "[5]", "value": 120, "unit": "min"}, {"measurement": "reductions in viable cells in MRSA biofilm", "setting": "MRSA biofilm", "value": "able to reduce, but not completely eradicate"}, {"measurement": "pK of CAP", "setting": "[9]", "value": "approximately 4.8"}, {"measurement": "time to complete biofilm eradication, CG", "setting": "[6]", "value": 60, "unit": "min"}, {"measurement": "time to complete biofilm eradication, PS", "setting": "[7]", "value": 60, "unit": "min"}, {"measurement": "time to complete biofilm eradication, MRSA", "setting": "[8]", "value": 120, "unit": "min"}]}
